Drawing on ChEMBL document CHEMBL1150180, “Studies on Cytotoxic Constituents in Pericarps of Mallotus japonicus, V. Three New Phloroglucinol Derivatives, Butyrylmallotochromanol, Isobutyrylmallotochromanol, and Mallotojaponol” (1990), this text covers EC50 for 7 molecules.

This experiment has as its system KB. The experiment in a line: Cytotoxicity against human KB cells. Type of experiment: functional. To be noted: read-out: ED50 (the source's name).

Values after ≈ are worked out from the molar mass of the structure shown.

Consider `COc1c(C)c(O)c(C(C)=O)c(O)c1Cc1c(O)c2c(c(C(C)=O)c1O)OC(C)(C)C(O)C2` (configuration not stated) [MALLOTOCHROMANOL], for which the EC50 is 21 µg/mL (≈ 45.6 µM).
Under `COc1c(C)c(O)c(C(C)=O)c(O)c1Cc1c(O)c(CC(O)C(C)(C)O)c(O)c(C(C)=O)c1O` (configuration not stated) [MALLOTOJAPONOL] stands 22 µg/mL (≈ 46 µM); under `COc1c(C)c(O)c(C(C)=O)c(O)c1Cc1c(O)c2c(c(C(=O)C(C)C)c1O)OC(C)(C)C(O)C2` (configuration not stated) [ISOBUTYRYLMALLOTOCHROMANOL], 14.6 µg/mL (≈ 29.9 µM).
For `CCCC(=O)c1c(O)c(Cc2c(O)c(C(C)=O)c(O)c(C)c2OC)c(O)c2c1OC(C)(C)C(O)C2` (configuration not stated) [BUTYRYLMALLOTOCHROMANOL], the EC50 was 13.5 µg/mL (≈ 27.6 µM).
For `COc1c(C)c(OC(C)=O)c(C(C)=O)c(OC(C)=O)c1Cc1c(OC(C)=O)c2c(c(C(=O)C(C)C)c1OC(C)=O)OC(C)(C)C(OC(C)=O)C2` (configuration not stated), the EC50 came to 4.5 µg/mL (≈ 6.44 µM).
For `COc1c(C)c(OC(C)=O)c(C(C)=O)c(OC(C)=O)c1Cc1c(OC(C)=O)c(CC(OC(C)=O)C(C)(C)OC(C)=O)c(OC(C)=O)c(C(C)=O)c1OC(C)=O` (configuration not stated), the EC50 was 22.5 µg/mL (≈ 29.1 µM).
As to `CCCC(=O)c1c(OC(C)=O)c(Cc2c(OC)c(C)c(OC(C)=O)c(C(C)=O)c2OC(C)=O)c(OC(C)=O)c2c1OC(C)(C)C(OC(C)=O)C2` (configuration not stated), the EC50 came to 2.8 µg/mL (≈ 4.01 µM).
